# Counter-ions that a name gives are not always drawn. Like-named read-outs stand apart in the source and are kept apart here.
# How the values were obtained:
# PRMT5/MEP50 complex = PRMT5/MEP50 complex (Homo sapiens (Human), UniProt O14744); test: Biochemical assay: PRMT5/MEP50 methylation of histone H2A with 3H-SAM, filter plate scintillation
# Method: Biochemical Assay Protocol
# Compounds were solubilized, and 3-fold diluted in 100% DMSO. […] Standard reactions were performed in a total volume of […] assay buffer, with histone H2A (5 μM final) as substrate. To this was added the PRMT5/MEP50 complex diluted to provide a final assay concentration of 5 nM and the compounds were allowed to preincubate for 15 to 20 minutes at room temperature. The reaction was initiated by adding S-[3H-methyl]-adenosyl-L-methionine (PerkinElmer) to final concentration of 1 μM. Following a 60 minutes incubation at 30° C., the reaction was stopped by adding 100 μL of 20% TCA. Each reaction was spotted onto filter plate (MultiScreen FB Filter Plate, Millipore), and washed 5 times with PBS buffer, Scintillation fluid was added to the filter plate and read in a scintillation counter. IC50 values were determined by fitting the data to the standard 4 parameters with Hill Slope using GraphPad Prism software.
# [1] = system: Symmetric Di-Methyl Arginine (sDMA) in Granta-519 cells; test: Western blot for symmetric di-methyl arginine (sDMA) marks in Granta cells, 3 days treatment; type: cell-based; details: Homo sapiens; for IC50: 3 days; for inhibition at 1 µM: Granta-519
# Method: Cell Treatment and Western Blotting for Detecting Symmetric Di-Methyl Arginine (sDMA) and Histone H3R8 Dimethyl Symmetric (H3R8me2s) Marks
# Initial compounds screening in A549 cells: Compounds were dissolved in DMSO to make 10 mM stock and further diluted to 0.1, and 1 mM. A549 cells were maintained in PRMI 1640 (Corning Cellgro, Catalog #: 10-040-CV) medium supplemented with 10% v/v FBS (GE Healthcare, Catalog #: SH30910.03). One day before experiment, 1.25×10^5 cells were seeded in 6 well plate in 3 mL medium and incubated overnight. The next day, medium was changed and 3 uL of compound solution was added (1:1,000 dilution, 0.1 and 1 uM final concentration; DMSO concentration: 0.1%), and incubated for 3 days. Cells incubated with DMSO was used as a vehicle control. Cells were washed once with PBS, trypsinized in 150 uL 0.25% Trypsin (Corning, Catalog #: 25-053-CI), neutralized with 1 mL complete medium, transferred to microcentrifuge tubes and collected. Cell pellet was then resuspended in 15 uL PBS, lysed in 4% SDS, and homogenized by passing through homogenizer column (Omega Biotek, Catalog #: HCR003). Total protein concentrations were determined by BCA assay (ThermoFisher Scientific, Catalog #: 23225). Lysates were mixed with 5× Laemmli buffer and boiled for 5 min. Forty ug of total protein was separated on SDS-PAGE gels (Bio-Rad, catalog #: 4568083, 4568043), transferred to PVDF membrane, blocked with 5% dry milk (Bio-Rad, Catalog #: 1706404) in TBS with 0.1% v/v Tween 20 (TBST) for 1 hour at room temperature (RT), and incubated with primary antibodies (sDMA: Cell signaling, Catalog #: 13222, 1:3,000; H3R8me2s: Epigentek, Catalog #: A-3706-100, 1:2,000; β-Actin: Abcam, Catalog #: ab8227, 1:10,000) in 5% dry milk in TBST at 4° C. for overnight. The next day, membranes were washed with TBST, 5×5 min, and incubated withhP conjugated seconded antibody (GE Healthcare; Catalog #: NA934-1ML; 1:5,000) for 2 hours at RT, followed by 5×5 min washes with TBST, and incubation with ECL substrates (Bio-Rad, Catalog #: 1705061, 1705062). Chemiluminescent signal was captured with FluoChem HD2 imager (Proteinsimple) and analyzed by ImageJ.
# Cells incubated with DMSO was used as a vehicle control. Cells were harvested and subjected to western blot analysis as described above. SmD3me2s and H3R8me2s bands were quantified by ImageJ. Signals were normalized to β-Actin and DMSO control. IC50 values were calculated using Graphpad Prism.
# [2] = histone H2A 5 μM, SAM 1 μM, enzyme 5 nM, read-out: PRMT5/MEP50 IC50
# [3] = biochemical potency, read-out: PRTMT5/MEP50 IC50
# [4] = Granta-519, 72 h, Granta cell line
# PRMT5/MEP50 complex, sequence (O14744 whole entry): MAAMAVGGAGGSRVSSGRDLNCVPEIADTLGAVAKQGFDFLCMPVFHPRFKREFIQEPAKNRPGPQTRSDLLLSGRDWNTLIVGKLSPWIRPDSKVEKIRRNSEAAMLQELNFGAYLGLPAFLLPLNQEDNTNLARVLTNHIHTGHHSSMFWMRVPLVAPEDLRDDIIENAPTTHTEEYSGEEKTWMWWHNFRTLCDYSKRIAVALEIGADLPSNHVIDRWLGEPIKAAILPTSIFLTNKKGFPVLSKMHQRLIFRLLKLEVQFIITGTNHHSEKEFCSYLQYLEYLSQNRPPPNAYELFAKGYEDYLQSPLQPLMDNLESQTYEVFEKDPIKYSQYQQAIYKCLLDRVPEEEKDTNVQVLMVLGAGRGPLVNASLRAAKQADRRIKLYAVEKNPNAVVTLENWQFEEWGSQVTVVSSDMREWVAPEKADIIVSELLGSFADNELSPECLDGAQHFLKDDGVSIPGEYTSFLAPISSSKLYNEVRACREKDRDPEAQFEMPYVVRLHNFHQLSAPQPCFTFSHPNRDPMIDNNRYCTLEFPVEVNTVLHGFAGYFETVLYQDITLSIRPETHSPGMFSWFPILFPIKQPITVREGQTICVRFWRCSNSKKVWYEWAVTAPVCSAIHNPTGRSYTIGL
# PRMT5/MEP50 complex, sequence (Q9BQA1 whole entry partner): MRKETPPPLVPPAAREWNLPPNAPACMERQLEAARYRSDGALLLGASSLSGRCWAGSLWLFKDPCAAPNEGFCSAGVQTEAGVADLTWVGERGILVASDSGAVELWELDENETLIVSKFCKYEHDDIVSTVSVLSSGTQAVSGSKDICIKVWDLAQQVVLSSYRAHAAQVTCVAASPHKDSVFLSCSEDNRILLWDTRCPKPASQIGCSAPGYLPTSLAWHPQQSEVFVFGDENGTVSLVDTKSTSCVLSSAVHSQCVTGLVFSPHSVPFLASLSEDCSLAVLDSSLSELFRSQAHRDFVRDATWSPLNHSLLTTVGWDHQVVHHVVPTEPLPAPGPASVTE
IC50 (PRMT5/MEP50 complex; [2]),"IC50 ([1]; 72 h, Granta-519 cell line)",IC50 (PRMT5/MEP50 complex; [3]),"IC50 [1, 4]",SMILES,inhibition at 1 µM [1]
3.1 nM,33 nM,,,"CO/N=c1/nc[nH]c2c1ccn2[C@@H]1O[C@H]([C@H](O)c2ccc(C(F)(F)F)c(F)c2)[C@@H](O)[C@H]1O [compound 78, 7-((2R,3R,4S,5R)-5-((R)-(3-fluoro-4-(trifluoromethyl)phenyl)(hydroxy)methyl)-3,4-dihydroxytetrahydrofuran-2-yl)-1,7-dihydro-4H-pyrrolo[2,3-d]pyrimidin-4-one O-methyl oxime]",
1.9 nM,16 nM,,,"O/N=c1/nc[nH]c2c1ccn2[C@@H]1O[C@H]([C@H](O)c2ccc(F)c(Cl)c2)[C@@H](O)[C@H]1O [compound 65, 7-((2R,3R,4S,5R)-5-((R)-(3-chloro-4-fluorophenyl)(hydroxy)methyl)-3,4-dihydroxytetrahydrofuran-2-yl)-1,7-dihydro-4H-pyrrolo[2,3-d]pyrimidin-4-one oxime]",
0.4 nM,1.8 nM,,,"O/N=c1\nc[nH]c2c1ccn2[C@@H]1O[C@H]([C@H](O)c2ccc(Cl)c(Cl)c2)[C@@H](O)[C@H]1O [compound 66, 7-((2R,3R,4S,5R)-5-((R)-(3,4-dichlorophenyl)(hydroxy)methyl)-3,4-dihydroxytetrahydrofuran-2-yl)-1,7-dihydro-4H-pyrrolo[2,3-d]pyrimidin-4-one oxime]",
35 nM,90 nM,,,"CO/N=c1/nc[nH]c2c1ccn2[C@@H]1O[C@H]([C@H](O)c2ccc(F)c(Cl)c2)[C@@H](O)[C@H]1O [compound 68, 7-((2R,3R,4S,5R)-5-((R)-(3-chloro-4-fluorophenyl)(hydroxy)methyl)-3,4-dihydroxytetrahydrofuran-2-yl)-1,7-dihydro-4H-pyrrolo[2,3-d]pyrimidin-4-one O-methyl oxime]",
0.7 nM,18 nM,,,"CO/N=c1/nc[nH]c2c1ccn2[C@@H]1O[C@H]([C@H](O)c2ccc(Cl)c(C)c2)[C@@H](O)[C@H]1O [compound 80, 7-((2R,3R,4S,5R)-5-((R)-(4-chloro-3-methylphenyl)(hydroxy)methyl)-3,4-dihydroxytetrahydrofuran-2-yl)-1,7-dihydro-4H-pyrrolo[2,3-d]pyrimidin-4-one O-methyl oxime]",
13.9 nM,260 nM,,,"Cc1n/c(=N\O)c2ccn([C@@H]3O[C@H]([C@H](O)c4ccc(Cl)cc4)[C@@H](O)[C@H]3O)c2[nH]1 [compound 71, 7-((2R,3R,4S,5R)-5-((R)-(4-chlorophenyl)(hydroxy)methyl)-3,4-dihydroxytetrahydrofuran-2-yl)-2-methyl-1,7-dihydro-4H-pyrrolo[2,3-d]pyrimidin-4-one oxime]",

# The next lines start with the compound.
SMILES,IC50 (PRMT5/MEP50 complex; [2]),"IC50 ([1]; 72 h, Granta-519 cell line)",IC50 (PRMT5/MEP50 complex; [3]),"IC50 [1, 4]",inhibition at 1 µM [1]
"C[C@@](O)(c1ccc(Cl)c(F)c1)[C@H]1O[C@@H](n2cc(F)c3c(N)ncnc32)[C@H](O)[C@@H]1O [Example 15-C, (2R,3R,4S,5S)-2-(4-amino-5-fluoro-7H-pyrrolo[2,3-d]pyrimidin-7-yl)-5-((R)-1-(4-chloro-3-fluorophenyl)-1-hydroxyethyl)tetrahydrofuran-3,4-diol]",,,1 nM,1.9 nM,
"CN(N)c1ncnc2c1ccn2[C@@H]1C[C@H](CCc2ccc3ccc(NCC4CC4)nc3c2)[C@@H](O)[C@H]1O [Example 79-B, (1S,2R,3S,5R)-3-(2-(2-((cyclopropylmethyl)amino)quinolin-7-yl)ethyl)-5-(4-(1-methylhydrazineyl)-7H-pyrrolo[2,3-d]pyrimidin-7-yl)cyclopentane-1,2-diol]",,,8.2 nM,97 nM,
"N/N=c1/nc[nH]c2c1ccn2[C@@H]1C[C@H]([C@H](O)c2ccc(F)c(F)c2)[C@@H](O)[C@H]1O [Example 37-B, 7-[(1R,2S,3R,4R)-4-[(S)-(3,4-difluorophenyl)-hydroxy-methyl]-2,3-dihydroxy-cyclopentyl]-1H-pyrrolo[2,3-d]pyrimidin-4-one hydrazone hydrochloride]",,,6.3 nM,100000 nM,
"O/N=c1/nc[nH]c2c1ccn2[C@@H]1C[C@H]([C@H](O)c2ccc(Cl)cc2)[C@@H](O)[C@H]1O [Example 50-B, 7-[(1R,2S,3R,4R)-4-[(S)-(4-chlorophenyl)-hydroxy-methyl]-2,3-dihydroxy-cyclopentyl]-1H-pyrrolo[2,3-d]pyrimidin-4-one oxime hydrochloride]",,,11.7 nM,~600 nM,
"CNc1ccc2ccc(CC[C@H]3C[C@@H](n4ccc5/c(=N/OC)nc[nH]c54)[C@H](O)[C@@H]3O)cc2n1 [Example 84-B, 7-((1R,2S,3R,4S)-2,3-dihydroxy-4-(2-(2-(methylamino)quinolin-7-yl)ethyl)cyclopentyl)-1,7-dihydro-4H-pyrrolo[2,3-d]pyrimidin-4-one O-methyl oxime]",,,2.7 nM,16 nM,
"O/N=c1/nc[nH]c2c1ncn2[C@@H]1O[C@H]([C@H](O)c2ccc(Cl)cc2)[C@@H](O)[C@H]1O [compound 54, 9-[(2R,3R,4S,5R)-5-[(R)-(4-chlorophenyl)-hydroxy-methyl]-3,4-dihydroxy-tetrahydrofuran-2-yl]-3H-purin-6-one oxime trifluoroacetic Acid Salt]",25.6 nM,,,,55%
"CN/N=c1/nc[nH]c2c1ncn2[C@@H]1O[C@H]([C@H](O)c2ccc(Cl)cc2)[C@@H](O)[C@H]1O [compound 52, (2R,3S,4R,5R)-2-[(R)-(4-chlorophenyl)-hydroxy-methyl]-5-[6-(methylhydrazono)-3H-purin-9-yl]tetrahydrofuran-3,4-diol; 2,2,2-trifluoroacetic Acid]",188 nM,,,,39%
"CO/N=c1\nc[nH]c2c1ccn2[C@@H]1C[C@H]([C@H](O)c2ccc(Cl)c(Cl)c2)[C@@H](O)[C@H]1O [Example 92-B, 7-((1R,2S,3R,4R)-4-((S)-(3,4-dichlorophenyl)(hydroxy)methyl)-2,3-dihydroxycyclopentyl)-1,7-dihydro-4H-pyrrolo[2,3-d]pyrimidin-4-one O-methyl oxime]",,,19.9 nM,335 nM,
"O/N=c1\nc[nH]c2c1ccn2[C@@H]1C[C@H](CCc2ccc3ccc(NCC4CC4)nc3c2)[C@@H](O)[C@H]1O [Example 87-B, 7-((1R,2S,3R,4S)-4-(2-(2-((cyclopropylmethyl)amino)quinolin-7-yl)ethyl)-2,3-dihydroxycyclopentyl)-1,7-dihydro-4H-pyrrolo[2,3-d]pyrimidin-4-one oxime]",,,0.33 nM,1.7 nM,
"CN/N=c1\nc[nH]c2c1ccn2[C@@H]1C[C@H](CCc2ccc3ccc(NCC4CC4)nc3c2)[C@@H](O)[C@H]1O [Example 91-B, (1S,2R,3S,5R)-3-(2-(2-((cyclopropylmethyl)amino)quinolin-7-yl)ethyl)-5-((Z)-4-(2-methylhydrazineylidene)-1,4-dihydro-7H-pyrrolo[2,3-d]pyrimidin-7-yl)cyclopentane-1,2-diol]",,,3.2 nM,46.8 nM,
"N/N=c1/nc[nH]c2c1ccn2[C@@H]1C[C@H]([C@H](O)c2ccc(Cl)cc2)[C@@H](O)[C@H]1O [Example 25-B, 7-[(1R,2S,3R,4R)-4-[(S)-(4-chlorophenyl)-hydroxy-methyl]-2,3-dihydroxy-cyclopentyl]-1H-pyrrolo[2,3-d]pyrimidin-4-one hydrazone hydrochloride]",,,47 nM,~3000 nM,
"CO/N=c1\nc[nH]c2c1ccn2[C@@H]1O[C@H]([C@H](OC)c2ccc(Cl)c(F)c2)[C@@H](O)[C@H]1O [Example 102, 7-((2R,3R,4S,5S)-5-((R)-(4-chloro-3-fluorophenyl)(methoxy)methyl)-3,4-dihydroxytetrahydrofuran-2-yl)-1,7-dihydro-4H-pyrrolo[2,3-d]pyrimidin-4-one O-methyl oxime]",436 nM,3360 nM,,,
